Experimental data reported in patent US20220372013A2, “PIPERIDINE-2,6-DIONE DERIVATIVES AND CROHN'S DISEASE TREATING” (Tianjin Hemay Pharmaceutical Sci-Tech Co., Ltd, priority 2016, published 2022).
Read-outs that look alike come from different tables or passages of the source. Marks after values point to notes of the source that are not given here.

Legend:
Assay type in all cases: in vivo, Wistar rats
[1] = test system: DNBS-Induced Inflammatory Bowel Disease Models in Rats; experiment: Biological Example 4: DNBS-induced inflammatory bowel disease models in rats; conditions: 30 mg/Kg i.g. qd × 7; for Body weight: Mean ± SD; for inhibition in vivo at 30 mg/kg: Rattus norvegicus, po, 168 h
Description: (§1) 102 male Wistar rats were fasted for 72 hours. A 5% glucose injection was administered subcutaneously twice during fasting. 88 rats with normal conditions and moderate body weight were selected from the fasting rats. The animals were randomly divided into 11 groups according to the body weight (see Table 11. Grouped Table).
(§2) The animals were anesthetized with ether after 72 hours fasting. A specially made gavage device was slowly inserted into the enteric cavity at 8 cm from the anus. The model control group and each test group were administered with 0.5 mL of 50 mg/mL DNBS in 30% ethanol solution. The normal control group was administered with 0.5 mL of 30% ethanol solution. The animals were inverted in anesthesia for 15 minutes. The day when the model was prepared was day 0 of the experiment. After 4 hours of DNBS induction, the corresponding drug or the corresponding volume of 1% CMC-Na was administered once per day. On day 7 of the experiment, the animals were euthanized to score the colon adhesion degree, measure the length of colon and ulcer area, weigh colon and calculate the colon weight to length ratio.
(§3) One-way ANOVA analysis of the length of colon and colon weight per length of rats was performed by SPSS22. Statistical analyses between groups were performed. The adhesion degree was scored. Mann-Whitney U non-parametric test was performed on ulcer area. Statistical analyses between groups were performed.
(§4) Calculation Formula of Inhibitory rate of weight increase per length: (Colon weight to length ratio in model group−Colon weight to length ratio in administration group)/(Colon weight to length ratio in model group−Colon weight to length ratio in blank group)

[2] = test system: DNBS-Induced Inflammatory Bowel Disease Models in Rats; experiment: Biological Example 2: DNBS-induced inflammatory bowel disease models in rats
Description: 110 male Wistar rats were fasted for 40 hours. A 5% glucose injection (10 mL/Kg) was administered subcutaneously during fasting. 48 rats with normal conditions and moderate body weight were selected from the fasting rats. The animals were randomly divided into […] according to the body weight: normal control group, model control group, sulfasalazine group (300 mg/Kg), dexamethasone group (0.1 mg/Kg), the compound in Example 26 group (30 mg/kg) and the compound in Example 27 group (30 mg/kg), with 8 rats in each group. The animals were anesthetized with isoflurane. A specially made gavage device (made by a rat gavage device having the diameter of 2 mm, which was nested on a mouse gavage device having the diameter of 1 mm) was slowly inserted into the enteric cavity at 8 cm from the anus. The model control group, the compound in Example 26 group and the compound in Example 27 group were administered with 0.5 mL of 50 mg/mL DNBS in 30% ethanol solution. The normal control group was administered with 0.5 mL of 30% ethanol solution. The animals were inverted in anesthesia for 15 minutes after the gavage device was removed. The day when the model was prepared was the first day of the experiment. After 4 hours of DNBS induction, the corresponding drug or the corresponding volume of 1% CMC-Na was administered once per day. On the sixth day of the experiment, the animals were euthanized to observe the results of each index so as to score the colon adhesion degree, measure the length of colon and ulcer area, weigh colon and calculate the colon weight to length ratio.
The compound in Example 26 and Example 27, sulfasalazine and dexamethasone: Preparation Method: Suspended with 1% CMC-Na, and prepared when it was needed.
Levene's Test for homogeneity of data was performed with Spss. Where the data were homogeneous (P>0.05), one-way ANOVA LSD test was performed. Where the analysis of variance was significant (P≤0.05), Dunnett's multiple comparison (parameter method) was performed. Where the results of Levene's Test were significant (P≤0.05), Kruskal-Wallis nonparametric test was performed. Where the results of Kruskal-Wallis nonparametric test were significant (P≤0.05), Mann-Whitney U test was performed for pairwise comparison.

[3] = test system: DNBS-Induced Inflammatory Bowel Disease Models in Rats; experiment: Biological Example 3: DNBS-induced inflammatory bowel disease models in rats; conditions: 30 mg/Kg i.g. qd × 7; for Body weight: Mean ± SD
Description: as §1, with “40” for “72”, “injection (10 mL/Kg)” for “injection”, “subcutaneously” for “subcutaneously twice”, “72” for “88”, “9” for “11”, “9.” for “11.”
as §2, with “40” for “72”
as §3, §4

[4] = 30 mg/Kg i.g. qd × 6, sixth day, Mean ± SD

**Q.** What does the source list for `COCCN1C(=O)CCC(N2C(=O)c3cccc(N)c3C2=O)C1=O` (stereo not shown) [Example 27, 4-amino-2-(1-(2-methoxyethyl)-2,6-dioxopiperidin-3-yl)isoindolin-1,3-dione]?
**A.** Colon weight to length ratio ([1]; day 7): 106 ± 14 mg/cm; Ulcer area of colon ([1]; day 7): 0.4 ± 0.6 cm^2; Body weight ([1]; Day 1): 125.5 ± 8.4 g; Body weight ([1]; Day 2): 124.4 ± 8.1 g; Body weight ([1]; Day 3): 125.8 ± 8.2 g; Body weight ([1]; Day 4): 133.1 ± 9.2 g; Body weight ([1]; Day 5): 141.6 ± 12.0 g; Body weight ([1]; Day 6): 146.7 ± 11.8 g; Body weight ([1]; Day 7): 156.3 ± 11.0 g; inhibition in vivo at 30 mg/kg ([1]; day 7, read-out: Inhibitory rate of ulcer area of colon): 83.3%; inhibition in vivo at 30 mg/kg ([1]; day 7, read-out: Inhibitory rate of weight increase per length): 65.9%; Adhesion Degree [2, 4]: 0.9 ± 0.8 Points; Colon Length [2, 4]: 12.9 ± 2.3 cm; Colon Weight [2, 4]: 1737.9 ± 410.6 mg; Ulcer Area [2, 4]: 2.0 ± 1.9 cm^2; therapeutic effects on the model (in words) ([2]; 30 mg/kg i.g. qd × 6): good therapeutic effects; growth rate of the body weight (in words) ([2]; fourth day of the experiment, compared with model control group, doses as in Table 7): higher than that in the model control group; Adhesion Degree of Colon ([3]; day 7): 0.9 ± 0.4 point; Colon weight to length ratio ([3]; day 7): 109 ± 12 mg/cm; Inhibitory rate of colon adhesion ([3]; day 7): 47.1# %; Inhibitory rate of ulcer area of colon ([3]; day 7): 99.7## %; Inhibitory rate of weight increase per length ([3]; day 7): 58.2## %; Ulcer area of colon ([3]; day 7): 0.01 ± 0.02## cm^2; Body weight ([3]; Day 0): 135.4 ± 4.9 g; Body weight ([3]; Day 1): 135.2 ± 4.2 g; Body weight ([3]; Day 2): 136.7 ± 5.0 g; Body weight ([3]; Day 3): 141.7 ± 7.5 g; Body weight ([3]; Day 4): 150.1 ± 9.2 g; Body weight ([3]; Day 5): 159.1 ± 10.3 g; Body weight ([3]; Day 6): 165.2 ± 10.0 g; Body weight ([3]; Day 7): 175.8 ± 8.2 g
